Reference: publication PMC11555678, “Improved Broad Spectrum Antifungal Drug Synergies with Cryptomycin, a Cdc50-Inspired Antifungal Peptide” (ACS Infectious Diseases, 2024)
Converted amounts (≈) assume the structure as drawn. Where two headings read alike, the source gives them in different places.

Tests used:
[1] = tested on: C. albicans SC5413; experiment: microbe, parasite or virus in culture; type: cell-based, Candida albicans; settings: Candida albicans, SC5413; compound alone; RPMI1640, 37 °C, 48 h; read-out: MIC
Procedure, shortened: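 Yeasts were grown overnight in YPD, washed twice in water, taken up in PBS and diluted to 5000 cfu/mL in RPMI. They were then added to plates holding 2-fold serial drug dilutions in RPMI1640 and incubated at 37 °C for 2 days.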

[2] = tested on: C. neoformans H99; type: cell-based, Cryptococcus neoformans; settings: RPMI1640, 37 °C; for MIC of antifungal in combination with KKOO / MIC of antifungal in combination with KKOO-NH2: 48 h
Method: All microdilution assays with fungi were carried out in accordance with CLSI protocols from M27 for yeasts and M38 for filamentous fungi, respectively, unless otherwise specified.[64],[65] Briefly, 96-well plates were charged with RPMI1640 media, with operating volume in the first column, 200 μL, and half operating volume, 100 μL, in the remaining wells. Drug stock solution in DMSO was aliquoted into the first well in each row. Half of the volume in the dosed well was serially diluted 2-fold until column 11. Column 11 was used as the negative growth control, and column 12 was used as the positive growth control. ON yeast cultures in YPD were washed twice in DD-H2O, resuspended in PBS, and adjusted to 5000 cfu/mL in RPMI. The 96-well plate was inoculated with 100 μL aliquots of cell suspension per well. […]
(§1) To assess drug synergy, the initial media charged to the plate contained the peptide at twice the final operating concentration; the remaining processing steps were identical to the MIC experiment. Upon addition of 100 μL of inoculant, the final operating concentration was achieved. Control MIC plates were prepared alongside drug synergy plates to account for the day-to-day variability in any individual MIC. FIC index is computed using eq 1. All MIC assays and drug synergy assays were completed with two technical replicates per 96-well plate and a minimum of two biological replicates per drug combination. If a difference in MIC between the two technical replicates on the plate were observed, only the higher concentration was reported as the MIC to reduce the possibility of type 1 error (false positive) [drawing 1] 1

[3] = tested on: C. glabrata 2001; type: cell-based, Candida glabrata; settings: for MIC of antifungal in combination with KKOO / MIC of antifungal in combination with KKOO-NH2: RPMI1640, 37 °C, 48 h
Method: (§2) All microdilution assays with fungi were carried out in accordance with CLSI protocols from M27 for yeasts and M38 for filamentous fungi, respectively, unless otherwise specified.[64],[65] Briefly, 96-well plates were charged with RPMI1640 media, with operating volume in the first column, 200 μL, and half operating volume, 100 μL, in the remaining wells. Drug stock solution in DMSO was aliquoted into the first well in each row. Half of the volume in the dosed well was serially diluted 2-fold until column 11. Column 11 was used as the negative growth control, and column 12 was used as the positive growth control. ON yeast cultures in YPD were washed twice in DD-H2O, resuspended in PBS, and adjusted to 5000 cfu/mL in RPMI. The 96-well plate was inoculated with 100 μL aliquots of cell suspension per well. Plates were incubated at 37 °C for 2 days.
as §1

[4] = tested on: Cg FKS1 S629P; experiment: Drug synergy (MIC in peptide-supplemented media); type: cell-based, Candida glabrata; settings: for MIC of antifungal in combination with KKOO / MIC of antifungal in combination with KKOO-NH2: RPMI1640, 37 °C, 48 h
Method: as §2, §1

[5] = tested on: Cg FKS2 S663P; experiment: Drug synergy (MIC in peptide-supplemented media); type: cell-based, Candida glabrata; settings: for MIC of antifungal in combination with KKOO / MIC of antifungal in combination with KKOO-NH2: RPMI1640, 37 °C, 48 h
Method: as §2, §1

[6] = tested on: C. albicans SC5413; type: cell-based, Candida albicans; settings: RPMI1640, 37 °C, 48 h; for MIC of antifungal in combination with KKOO: azole MICs unclear (intermediate phenotype); for MIC of antifungal in combination with KKOO-NH2: azole MICs could not be determined (intermediate phenotype)
Method: as §2, §1

[7] = tested on: A. fumigatus AF293; experiment: Drug synergy (MIC in peptide-supplemented media); type: cell-based, Aspergillus fumigatus; settings: RPMI1640, 37 °C, 48 h, CAS: paradoxical growth; for MIC of antifungal in combination with KKOO: MIC = <20% growth; for MIC of antifungal in combination with KKOO-NH2: MIC = well with <20% growth
Method: as §2, §1

[8] = in the presence of 2 μg/mL KKOO-NH2

CC[C@H](C)C[C@H](C)CCCCCCCCC(=O)N[C@H]1C[C@@H](O)[C@@H](NCCN)NC(=O)[C@@H]2[C@@H](O)CCN2C(=O)[C@H]([C@H](O)CCN)NC(=O)[C@H]([C@H](O)[C@@H](O)c2ccc(O)cc2)NC(=O)[C@@H]2C[C@@H](O)CN2C(=O)[C@H]([C@@H](C)O)NC1=O [CAS, caspofungin]
MIC [1]: 0.25 µg/mL (≈ 0.229 µM)
MIC of antifungal in combination with (FITC)KKOO ([2]; +0 μg/mL (FITC)KKOO): 16 µg/mL
MIC of antifungal in combination with KKOO ([2]; +0 μg/mL KKOO (control)): 16 µg/mL
MIC of antifungal in combination with KKOO-NH2 ([2]; +0 μg/mL KKOO-NH2 (control)): 16 µg/mL
MIC of antifungal in combination with KKOO-NH2 ([2]; +1 μg/mL KKOO-NH2): 16 µg/mL
MIC of antifungal in combination with KKOO ([2]; +1 μg/mL KKOO): 16 µg/mL
MIC of antifungal in combination with KKOO-NH2 ([2]; +2 μg/mL KKOO-NH2): 16 µg/mL
MIC of antifungal in combination with KKOO ([2]; +2 μg/mL KKOO): 16 µg/mL
MIC of antifungal in combination with (FITC)KKOO ([2]; +4 μg/mL (FITC)KKOO): 16 µg/mL
MIC of antifungal in combination with KKOO-NH2 ([2]; +4 μg/mL KKOO-NH2): 4 µg/mL
MIC of antifungal in combination with KKOO ([2]; +4 μg/mL KKOO): 16 µg/mL
MIC of antifungal in combination with (FITC)KKOO ([2]; +8 μg/mL (FITC)KKOO): 16 µg/mL
MIC of antifungal in combination with KKOO ([2]; +8 μg/mL KKOO): 8 µg/mL
MIC of antifungal in combination with KKOO ([3]; +0 μg/mL KKOO (control)): 0.5 µg/mL
MIC of antifungal in combination with KKOO-NH2 ([3]; +0 μg/mL KKOO-NH2 (control)): 0.5 µg/mL
MIC of antifungal in combination with KKOO-NH2 ([3]; +1 μg/mL KKOO-NH2): 0.5 µg/mL
MIC of antifungal in combination with KKOO ([3]; +1 μg/mL KKOO): 0.5 µg/mL
MIC of antifungal in combination with KKOO-NH2 ([3]; +2 μg/mL KKOO-NH2): 0.125 µg/mL
MIC of antifungal in combination with KKOO ([3]; +2 μg/mL KKOO): 0.25 µg/mL
MIC of antifungal in combination with KKOO-NH2 ([3]; +4 μg/mL KKOO-NH2): 0.004 µg/mL
MIC of antifungal in combination with KKOO ([3]; +4 μg/mL KKOO): 0.016 µg/mL
MIC of antifungal in combination with KKOO ([3]; +8 μg/mL KKOO): 0.556 µg/mL
reduction of MIC of antifungal [3, 8]: 4 fold
MIC of antifungal in combination with KKOO ([4]; +0 μg/mL KKOO (control)): 1 µg/mL
MIC of antifungal in combination with KKOO-NH2 ([4]; +0 μg/mL KKOO-NH2 (control)): 1 µg/mL
MIC of antifungal in combination with KKOO-NH2 ([4]; +1 μg/mL KKOO-NH2): 0.5 µg/mL
MIC of antifungal in combination with KKOO ([4]; +1 μg/mL KKOO): 0.5 µg/mL
MIC of antifungal in combination with KKOO-NH2 ([4]; +2 μg/mL KKOO-NH2): 0.062 µg/mL
MIC of antifungal in combination with KKOO ([4]; +2 μg/mL KKOO): 0.125 µg/mL
MIC of antifungal in combination with KKOO-NH2 ([4]; +4 μg/mL KKOO-NH2): 0.004 µg/mL
MIC of antifungal in combination with KKOO ([4]; +4 μg/mL KKOO): 0.008 µg/mL
reduction of MIC of antifungal [4, 8]: 16 fold
MIC of antifungal in combination with KKOO ([5]; +0 μg/mL KKOO (control)): 4 µg/mL
MIC of antifungal in combination with KKOO-NH2 ([5]; +0 μg/mL KKOO-NH2 (control)): 4 µg/mL
MIC of antifungal in combination with KKOO-NH2 ([5]; +1 μg/mL KKOO-NH2): 2 µg/mL
MIC of antifungal in combination with KKOO ([5]; +1 μg/mL KKOO): 2 µg/mL
MIC of antifungal in combination with KKOO-NH2 ([5]; +2 μg/mL KKOO-NH2): 1 µg/mL
MIC of antifungal in combination with KKOO ([5]; +2 μg/mL KKOO): 2 µg/mL
MIC of antifungal in combination with KKOO-NH2 ([5]; +4 μg/mL KKOO-NH2): 1 µg/mL
MIC of antifungal in combination with KKOO ([5]; +4 μg/mL KKOO): 1 µg/mL
reduction of MIC of antifungal [5, 8]: 4 fold
MIC of antifungal in combination with KKOO ([6]; +0 μg/mL KKOO (control)): 0.25 µg/mL
MIC of antifungal in combination with KKOO-NH2 ([6]; +0 μg/mL KKOO-NH2 (control)): 0.25 µg/mL
MIC of antifungal in combination with KKOO-NH2 ([6]; +1 μg/mL KKOO-NH2): 0.5 µg/mL
MIC of antifungal in combination with KKOO ([6]; +1 μg/mL KKOO): 0.5 µg/mL
MIC of antifungal in combination with KKOO-NH2 ([6]; +2 μg/mL KKOO-NH2): 0.062 µg/mL
MIC of antifungal in combination with KKOO ([6]; +2 μg/mL KKOO): 0.125 µg/mL
MIC of antifungal in combination with KKOO-NH2 ([6]; +4 μg/mL KKOO-NH2): 0.008 µg/mL
MIC of antifungal in combination with KKOO ([6]; +4 μg/mL KKOO): 0.556 µg/mL
MIC of antifungal in combination with KKOO ([6]; +8 μg/mL KKOO): 0.008 µg/mL
MIC of antifungal in combination with KKOO ([7]; +0 μg/mL KKOO (control)): 0.125 µg/mL
MIC of antifungal in combination with KKOO-NH2 ([7]; +0 μg/mL KKOO-NH2 (control)): 0.125 µg/mL
MIC of antifungal in combination with KKOO-NH2 ([7]; +1 μg/mL KKOO-NH2): 0.031 µg/mL
MIC of antifungal in combination with KKOO ([7]; +1 μg/mL KKOO): 0.062 µg/mL
MIC of antifungal in combination with KKOO-NH2 ([7]; +2 μg/mL KKOO-NH2): 0.031 µg/mL
MIC of antifungal in combination with KKOO ([7]; +2 μg/mL KKOO): 0.031 µg/mL
MIC of antifungal in combination with KKOO-NH2 ([7]; +4 μg/mL KKOO-NH2): 0.031 µg/mL
MIC of antifungal in combination with KKOO ([7]; +4 μg/mL KKOO): 0.031 µg/mL
MIC of antifungal in combination with KKOO-NH2 ([7]; +8 μg/mL KKOO-NH2): 0.031 µg/mL
